This note sets out measurements from patent US7235674B2, “Substituted coumarins and quinolines and analogs as activators of caspases and inducers of apoptosis and the use thereof” (Cytovia, Inc., priority 2001, dated 2007).

The term EC50 denotes the midpoint of the concentration-response curve. Read a low EC50 as an effect from little substance.

Experiment [1] concerns Human breast cancer cell line T-47D. Put plainly: Caspase cascade activation assay (N-(Ac-DEVD)-N'-ethoxycarbonyl-R110 fluorogenic substrate) in T-47D cells. It is filed as cell-based. As to conditions: T-47D cells, 24 h incubation; for EC50 / EC50 (nM) T-47D: caspase cascade activation potency; for Caspase activity (Ratio) T-47D: ratio of net RFU of test compound to control, 3 h substrate reading. Here is the method: (§1) Human breast cancer cell lines T-47D and ZR-75-1 were grown according to media component mixtures designated by American Type Culture Collection +10% FCS (Invitrogen Corporation), in a 5% CO2 −95% humidity incubator at 37° C. T-47D and ZR-75-1 cells were maintained at a cell density between 30 and 80% confluency at a cell density of 0.1 to 0.6×10^6 cells/mL. Cells were harvested at 600×g and resuspended at 0.65×10^6 cells/mL into appropriate media +10% FCS. An aliquot of 45 μl of cells was added to a well of a 96-well microtiter plate containing 5 μl of a 10% DMSO in RPMI-1640 media solution containing 0.16 to 10 μM of 3-cyano-7-methoxy-4-(3-bromo-4,5-dimethoxyphenyl)-2-oxo-2H-chromene (Example 1) or other test compound (0.016 to 1 μM final). An aliquot of 45 μl of cells was added to a well of a 96-well microtiter plate containing 5 μl of a 10% DMSO in RPMI-1640 media solution without test compound as the control sample. The samples were mixed by agitation and then incubated at 37° C. for 24 h in a 5% CO2 −95% humidity incubator. After incubation, the samples were removed from the incubator and 50 μl of a solution containing 20 μM of N-(Ac-DEVD)-N′-ethoxycarbonyl-R110 fluorogenic substrate (SEQ ID NO:1) (Cytovia, Inc.; WO99/18856), 20% sucrose (Sigma), 20 mM DTT (Sigma), 200 mM NaCl (Sigma), 40 mM Na PIPES buffer pH 7.2 (Sigma), and 500 μg/ml lysolecithin (Calbiochem) was added. The samples were mixed by agitation and incubated at room temperature. Using a fluorescent plate reader (Model 1420 Wallac Instruments), an initial reading (T=0) was made approximately 1-2 min after addition of the substrate solution, employing excitation at 485 nm and emission at 530 nm, to determine the background fluorescence of the control sample. After the 3 h incubation, the samples were read for fluorescence as above (T=3 h).
(§2) The Relative Fluorescence Unit values (RFU) were used to calculate the sample readings as follows: RFU(T=3 h)−Control RFU(T=0)=Net RFU(T=3 h)
(§3) The activity of caspase cascade activation was determined by the ratio of the net RFU value for 3-cyano-7-methoxy-4-(3-bromo-4,5-dimethoxy-phenyl)-2-oxo-2H-chromene, or other test compound, to that of control samples. The EC50 (nM) was determined by a sigmoidal dose-response calculation (Prism 2.0, GraphPad Software Inc.).

For experiment [2], the system named is Human breast cancer cell line ZR-75-1. The experiment is described as follows: Caspase cascade activation assay (N-(Ac-DEVD)-N'-ethoxycarbonyl-R110 fluorogenic substrate) in ZR-75-1 cells. The conditions noted are these: ZR-75-1 cells, 24 h incubation; for EC50 / EC50 (nM) ZR-75-1: caspase cascade activation potency; for Caspase activity (Ratio) ZR-75-1: ratio of net RFU of test compound to control, 3 h substrate reading. It is filed as cell-based. Here is the method:
as §1, §2, §3

Turning to `COc1ccc2c(-c3cc(Br)c(OC)c(OC)c3)c(C#N)c(=O)oc2c1` [Example 1, 3-Cyano-7-methoxy-4-(3-bromo-4,5-dimethoxyphenyl)-2-oxo-2H-chromene], the EC50 in experiment [1] (Homo sapiens, T47D) turned out to be 257 nM; in experiment [2] (Homo sapiens) it was 97 nM. Also, in experiment [1], the “Caspase activity (Ratio) T-47D” value is on record as 6.2. Also, the “Caspase activity (Ratio) ZR-75-1” value in experiment [2] came out at 4.2.
The corresponding values for `COc1cc(OC)cc(-c2c(C#N)c(=O)oc3cc(OC)ccc23)c1` [Example 2, 3-Cyano-7-methoxy-4-(3,5-dimethoxyphenyl)-2-oxo-2H-chromene] are 44 nM, 11 nM, 4.1 and 5.4.
Take `N#Cc1c(-c2ccccc2)c2ccccc2oc1=N` [Example 3, 3-Cyano-2-imino-4-phenyl-2H-chromene]: in experiment [1], the “EC50 (nM) T-47D” value is recorded as “Inactive” and the “Caspase activity (Ratio) T-47D” value was “Inactive”. For the same compound, in experiment [2], the “EC50 (nM) ZR-75-1” value is “Inactive” and the “Caspase activity (Ratio) ZR-75-1” value is “Inactive”.
In the case of `N#Cc1c(-c2ccccc2)c2ccccc2oc1=O` [Example 4, 3-Cyano-4-phenyl-2-oxo-2H-chromene], in experiment [1], the “EC50 (nM) T-47D” value is recorded as “Inactive” and the “Caspase activity (Ratio) T-47D” value is “Inactive”. Besides, in experiment [2], the “EC50 (nM) ZR-75-1” value is recorded as “Inactive” and the “Caspase activity (Ratio) ZR-75-1” value is reported as “Inactive”.
`COc1cccc(C2=c3ccc4c(c3OC(=O)C2C#N)C=CN=4)c1` (centres unmarked) [Example 5, 3-Cyano-4-(3-methoxyphenyl)-2-oxo-2H-pyrrolo[2,3-h]chromene]: the EC50 in experiment [1] (Homo sapiens, T47D) is 200 nM; in experiment [2] (Homo sapiens) it was 111 nM. In addition, in experiment [1], the “Caspase activity (Ratio) T-47D” value was 2.0. In experiment [2], the “Caspase activity (Ratio) ZR-75-1” value is recorded as 10.4.
Regarding `N#Cc1c(-c2ccccc2)c2ccccc2[nH]c1=O` [Example 6, 3-Cyano-4-phenyl-quinolin-1H-2-one], in experiment [1], it took 4800 nM to reach a half-maximal effect (EC50) and the “Caspase activity (Ratio) T-47D” value amounted to 9.1. For the same compound, in experiment [2], the midpoint of the response, the EC50, lay at 882 nM and the “Caspase activity (Ratio) ZR-75-1” value is recorded as 10.6.
The corresponding values for `COc1cccc(-c2c(C#N)c(=O)[nH]c3cc(Cl)ccc23)c1` [Example 8, 7-Chloro-3-cyano-4-(3-methoxy-phenyl)-quinolin-1H-2-one] are 1170 nM, 4.1, 878 nM and 10.1.
Take `COc1ccc2c(-c3cc(Br)c(OC)c(OC)c3)c(C#N)c(=O)[nH]c2c1` [Example 9, 4-(3-Bromo-4,5-dimethoxy-phenyl)-3-cyano-7-methoxy-quinolin-1H-2-one]: in experiment [1], a half-maximal response (EC50) required 4410 nM and the “Caspase activity (Ratio) T-47D” value is 4.4. In experiment [2], a half-maximal effect (EC50) was put at 2050 nM and the “Caspase activity (Ratio) ZR-75-1” value is recorded as 7.4.
For the compound `COc1cc(OC)cc(C2=c3ccc4c(c3OC(=O)C2C#N)C=CN=4)c1` (centres unmarked) [Example 16, 4-(3,5-Dimethoxyphenyl)-3-cyano-2-oxo-2H-pyrrolo[2,3-h]chromene], the 50% effective concentration (EC50) in experiment [1] (Homo sapiens, T47D) amounted to 106 nM; in experiment [2] (Homo sapiens) it was 174 nM. In experiment [1], the “Caspase activity (Ratio) T-47D” value worked out at 3.1. Moreover, in experiment [2], the “Caspase activity (Ratio) ZR-75-1” value is on record as 3.6.
On the same counts, the results for `COc1cccc(-c2c(C#N)c(=O)oc3cc(OC)ccc23)c1` [Example 17, 3-Cyano-4-(3-methoxy-phenyl)-7-methoxy-2-oxo-2H-chromene] are 99.7 nM, 43.4 nM, 8.9 and 11.7.
The corresponding values for `COc1cc(-c2c(C#N)c(=O)oc3cc(N)ccc23)cc(Br)c1OC` [Example 18, 7-Amino-4-(3-bromo-4,5-dimethoxyphenyl)-3-cyano-2-oxo-2H-chromene] are 1490 nM, 320 nM, 2.2 and 7.1.
The corresponding values for `COc1cc(-c2c(C#N)c(N)nc3c2CCc2ccccc2-3)cc(Br)c1OC` [Example 19, 2-Amino-4-(3-bromo-4,5-dimethoxyphenyl)-3-cyano-5,6-dihydro-benzo[h]quinoline] are 4060 nM, 556 nM, 5.4 and 7.9.
With `COc1cc(-c2cc3c(c4c2=C(C#N)C(=O)O4)OC(C)(C)CC=3)cc(Br)c1OC` [Example 20, 4-(3-Bromo-4,5-dimethoxyphenyl)-3-cyano-7,8-dihydro-8,8-dimethyl-2-oxo-2H-furo[3,2-h]chromene], in experiment [1], the “EC50 (nM) T-47D” value was “Inactive” and the “Caspase activity (Ratio) T-47D” value is reported as 1.6. Besides, the EC50 in experiment [2] (Homo sapiens) was determined as 1000 nM. The “Caspase activity (Ratio) ZR-75-1” value in experiment [2] was found to be 3.1.
With `COc1cc(-c2c(C#N)c(=O)oc3cc(N(C)C)ccc23)cc(Br)c1OC` [Example 21, 3-Cyano-7-dimethylamino-4-(3-bromo-4,5-dimethoxyphenyl)-2-oxo-2H-chromene], the concentration for a half-maximal effect (EC50) in experiment [1] (Homo sapiens, T47D) is 546 nM; in experiment [2] (Homo sapiens), 279 nM. The “Caspase activity (Ratio) T-47D” value in experiment [1] is listed as 5.8. In addition, the “Caspase activity (Ratio) ZR-75-1” value in experiment [2] is reported as 9.1.
With `COc1cc(OC)cc(-c2c(C#N)c(=O)oc3cc(N)ccc23)c1` [Example 22, 7-Amino-3-cyano-4-(3,5-dimethoxyphenyl)-2-oxo-2H-chromene], in experiment [1], the “EC50 (nM) T-47D” value is listed as “Inactive” and the “Caspase activity (Ratio) T-47D” value was 1.5. In experiment [2] (Homo sapiens), this compound gave an EC50 of 400 nM. For the same compound, the “Caspase activity (Ratio) ZR-75-1” value in experiment [2] turned out to be 3.4.
With `COc1cc(OC)cc(-c2c(C#N)c(=O)oc3cc(N(C)C)ccc23)c1` [Example 23, 3-Cyano-7-dimethylamino-4-(3,5-dimethoxyphenyl)-2-oxo-2H-chromene], the EC50 amounted to 456 nM in experiment [1] (Homo sapiens, T47D) and 429 nM in experiment [2] (Homo sapiens). Moreover, the “Caspase activity (Ratio) T-47D” value in experiment [1] was 2.3. In experiment [2], the “Caspase activity (Ratio) ZR-75-1” value amounted to 7.2.
On the same counts, the results for `COc1ccc(OC)c(C2=c3ccc4c(c3OC(=O)C2C#N)C=CN=4)c1` (centres unmarked) [Example 24, 3-Cyano-4-(2,5-dimethoxyphenyl)-2-oxo-2H-pyrrolo[2,3-h]chromene] are 585 nM, 405 nM, 4.5 and 7.1.
The corresponding values for `CNc1ccc2c(-c3cc(Br)c(OC)c(OC)c3)c(C#N)c(=O)oc2c1` [Example 25, 4-(3-Bromo-4,5-dimethoxy-phenyl)-3-cyano-7-methylamino-2-oxo-2H-chromene] are 1090 nM, 356 nM, 4.9 and 6.1.
Turning to `COc1cc(-c2c(C#N)c(=N)oc3cc(N)ccc23)cc(Br)c1OC` [Example 26, 7-Amino-4-(3-bromo-4,5-dimethoxy-phenyl)-3-cyano-2-imino-2H-chromene], in experiment [1], the “EC50 (nM) T-47D” value is given as “Inactive” and the “Caspase activity (Ratio) T-47D” value came out at 1.9. The midpoint of the response in experiment [2] (Homo sapiens), the EC50, lay at 2770 nM. For the same compound, the “Caspase activity (Ratio) ZR-75-1” value in experiment [2] was 8.8.
Consider `COc1cc(-c2c(C#N)c(=O)oc3cc(Cl)ccc23)cc(Br)c1OC` [Example 28, 4-(3-Bromo-4,5-dimethoxy-phenyl)-7-chloro-3-cyano-2-oxo-2H-chromene], for which a half-maximal effect in experiment [1] (Homo sapiens, T47D) (EC50) was put at 2960 nM. In addition, the “Caspase activity (Ratio) T-47D” value in experiment [1] is listed as 2.2.
For the compound `COc1cccc(-c2c(C#N)c(=N)sc3cc(OC)ccc23)c1` [Example 30, 2-Imino-3-cyano-7-methoxy-4-(3′-methoxy-phenyl)-2H-thiochromene], in experiment [1], the “EC50 (nM) T-47D” value is recorded as “Inactive” and the “Caspase activity (Ratio) T-47D” value is reported as “Inactive”. In addition, in experiment [2], the “EC50 (nM) ZR-75-1” value is “Inactive” and the “Caspase activity (Ratio) ZR-75-1” value is “Inactive”.
As for `COc1cc(-c2c(C#N)c(=N)oc3cc(N(C)C)ccc23)cc(Br)c1OC` [Example 31, 2-Imino-3-cyano-7-dimethylamino-4-(3-bromo-4,5-dimethoxyphenyl)-2H-chromene], the EC50 in experiment [1] (Homo sapiens, T47D) is 2500 nM.
